Laboratory results reported in US10045981B2, “Selective kinase inhibitors” (JAKPHARM, LLC, priority 2015, dated 2018).
Like-named read-outs stand apart in the source and are kept apart here.

Columns and labels:
CK1g2 = CK1g2 (Homo sapiens, UniProt P78368); experiment: Exemplary Kinase Panel Analysis; format: biochemical; conditions: 10 concentrations, 3-fold serial dilutions starting at 5 μM, duplicate
JAK1 = JAK1 (Homo sapiens, UniProt P23458); experiment: JAK1 IC50; format: biochemical
JAK3 = target: T1, JAK3 (Homo sapiens, UniProt P52333); experiment: Exemplary Kinase Panel Analysis; format: biochemical; conditions: 10 concentrations, 3-fold serial dilutions starting at 5 μM, duplicate
T1 sequence (P52333 1-1124): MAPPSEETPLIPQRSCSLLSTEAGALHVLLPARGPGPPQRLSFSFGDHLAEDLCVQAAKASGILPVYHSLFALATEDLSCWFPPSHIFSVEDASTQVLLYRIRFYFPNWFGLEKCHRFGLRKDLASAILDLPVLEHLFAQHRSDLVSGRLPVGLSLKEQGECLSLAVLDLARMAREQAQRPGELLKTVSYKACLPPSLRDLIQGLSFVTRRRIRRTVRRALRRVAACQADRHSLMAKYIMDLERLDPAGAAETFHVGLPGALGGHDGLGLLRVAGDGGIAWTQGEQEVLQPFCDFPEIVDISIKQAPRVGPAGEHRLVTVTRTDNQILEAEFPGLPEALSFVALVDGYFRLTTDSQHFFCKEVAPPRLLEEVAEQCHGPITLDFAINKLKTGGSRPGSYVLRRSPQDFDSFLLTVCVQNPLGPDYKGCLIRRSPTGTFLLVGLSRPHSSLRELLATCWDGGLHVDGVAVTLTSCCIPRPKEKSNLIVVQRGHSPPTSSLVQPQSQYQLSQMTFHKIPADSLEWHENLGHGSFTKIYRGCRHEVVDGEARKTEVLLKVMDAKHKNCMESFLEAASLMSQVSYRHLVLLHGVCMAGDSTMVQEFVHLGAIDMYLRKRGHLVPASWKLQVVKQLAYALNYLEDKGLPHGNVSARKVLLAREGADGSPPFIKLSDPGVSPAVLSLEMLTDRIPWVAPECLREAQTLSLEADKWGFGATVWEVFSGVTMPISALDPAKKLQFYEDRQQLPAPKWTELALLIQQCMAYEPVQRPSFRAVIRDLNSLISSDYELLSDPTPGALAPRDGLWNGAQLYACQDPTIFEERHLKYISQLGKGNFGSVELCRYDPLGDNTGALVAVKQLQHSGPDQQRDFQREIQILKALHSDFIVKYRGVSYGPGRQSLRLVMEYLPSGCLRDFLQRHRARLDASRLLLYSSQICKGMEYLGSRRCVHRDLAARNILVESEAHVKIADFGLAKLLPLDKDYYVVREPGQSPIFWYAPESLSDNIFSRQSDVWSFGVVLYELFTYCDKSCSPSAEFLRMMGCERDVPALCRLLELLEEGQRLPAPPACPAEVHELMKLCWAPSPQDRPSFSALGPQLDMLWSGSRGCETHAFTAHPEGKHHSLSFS

CYP3A4 [1] = target: T2, CYP3A4 (Homo sapiens, UniProt P08684); experiment: CYP3A4 inhibition testosterone LCMS; format: in vitro ADME; conditions: read-out: CYP3A4 K50 [uM] testosterone LCMS
[2] = Human Plasma protein binding; format: in vitro ADME
L929 Fibroblasts = experiment: Cytotoxicity Screening L929 Fibroblasts; format: cell-based
From the text: (§1) The cytotoxicity screening panel included cell count, nuclear size, DNA structure, cell membrane permeability, mitochondrial mass, mitochondrial membrane potential, and cytochrome C release.

[3] = Cytotoxicity Screening L929 Fibroblasts; format: cell-based; conditions: mouse, read-out: 50% Maximal Effect Concentration (AC50)
From the text: as §1

[4] = Mouse Liver Microsomes stability; format: in vitro ADME; conditions: read-out: Mouse Liver Microsomes t½
CYP3A4 [5] = target: T2, CYP3A4; experiment: CYP3A4 inhibition midazolam LCMS; format: in vitro ADME
[6] = Human Liver Microsomes stability; format: in vitro ADME; conditions: read-out: Human Liver Microsomes t½
EGFR (d752-759) = EGFR (d752-759) (Homo sapiens, UniProt P00533, DEL752-759); experiment: Exemplary Kinase Panel Analysis; format: biochemical; conditions: 10 concentrations, 3-fold serial dilutions starting at 5 μM, duplicate
EGFR (d752-759), sequence (P00533 with tags, fused parts or gaps DEL752-759 limits assumed): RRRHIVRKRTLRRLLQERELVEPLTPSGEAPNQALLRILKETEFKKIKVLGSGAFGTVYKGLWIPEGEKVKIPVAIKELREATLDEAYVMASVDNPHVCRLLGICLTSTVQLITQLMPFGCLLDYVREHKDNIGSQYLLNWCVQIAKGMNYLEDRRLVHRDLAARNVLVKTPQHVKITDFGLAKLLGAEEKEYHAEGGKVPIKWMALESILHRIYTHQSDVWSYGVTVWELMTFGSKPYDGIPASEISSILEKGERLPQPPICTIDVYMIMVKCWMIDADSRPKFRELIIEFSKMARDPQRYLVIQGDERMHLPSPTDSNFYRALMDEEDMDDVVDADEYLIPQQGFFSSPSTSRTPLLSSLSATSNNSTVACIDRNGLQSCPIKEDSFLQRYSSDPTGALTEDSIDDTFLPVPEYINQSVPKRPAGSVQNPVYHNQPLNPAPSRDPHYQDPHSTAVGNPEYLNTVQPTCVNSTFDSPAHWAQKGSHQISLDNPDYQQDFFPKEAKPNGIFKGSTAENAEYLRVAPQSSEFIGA

[7] = Rat Liver Microsomes stability; format: in vitro ADME; conditions: read-out: Rat Liver Microsomes t½
EGFR (G719C) = EGFR (G719C) (Homo sapiens, UniProt P00533, G719C); experiment: Exemplary Kinase Panel Analysis; format: biochemical; conditions: 10 concentrations, 3-fold serial dilutions starting at 5 μM, duplicate
EGFR (G719C), sequence (P00533 25-1210 G719C): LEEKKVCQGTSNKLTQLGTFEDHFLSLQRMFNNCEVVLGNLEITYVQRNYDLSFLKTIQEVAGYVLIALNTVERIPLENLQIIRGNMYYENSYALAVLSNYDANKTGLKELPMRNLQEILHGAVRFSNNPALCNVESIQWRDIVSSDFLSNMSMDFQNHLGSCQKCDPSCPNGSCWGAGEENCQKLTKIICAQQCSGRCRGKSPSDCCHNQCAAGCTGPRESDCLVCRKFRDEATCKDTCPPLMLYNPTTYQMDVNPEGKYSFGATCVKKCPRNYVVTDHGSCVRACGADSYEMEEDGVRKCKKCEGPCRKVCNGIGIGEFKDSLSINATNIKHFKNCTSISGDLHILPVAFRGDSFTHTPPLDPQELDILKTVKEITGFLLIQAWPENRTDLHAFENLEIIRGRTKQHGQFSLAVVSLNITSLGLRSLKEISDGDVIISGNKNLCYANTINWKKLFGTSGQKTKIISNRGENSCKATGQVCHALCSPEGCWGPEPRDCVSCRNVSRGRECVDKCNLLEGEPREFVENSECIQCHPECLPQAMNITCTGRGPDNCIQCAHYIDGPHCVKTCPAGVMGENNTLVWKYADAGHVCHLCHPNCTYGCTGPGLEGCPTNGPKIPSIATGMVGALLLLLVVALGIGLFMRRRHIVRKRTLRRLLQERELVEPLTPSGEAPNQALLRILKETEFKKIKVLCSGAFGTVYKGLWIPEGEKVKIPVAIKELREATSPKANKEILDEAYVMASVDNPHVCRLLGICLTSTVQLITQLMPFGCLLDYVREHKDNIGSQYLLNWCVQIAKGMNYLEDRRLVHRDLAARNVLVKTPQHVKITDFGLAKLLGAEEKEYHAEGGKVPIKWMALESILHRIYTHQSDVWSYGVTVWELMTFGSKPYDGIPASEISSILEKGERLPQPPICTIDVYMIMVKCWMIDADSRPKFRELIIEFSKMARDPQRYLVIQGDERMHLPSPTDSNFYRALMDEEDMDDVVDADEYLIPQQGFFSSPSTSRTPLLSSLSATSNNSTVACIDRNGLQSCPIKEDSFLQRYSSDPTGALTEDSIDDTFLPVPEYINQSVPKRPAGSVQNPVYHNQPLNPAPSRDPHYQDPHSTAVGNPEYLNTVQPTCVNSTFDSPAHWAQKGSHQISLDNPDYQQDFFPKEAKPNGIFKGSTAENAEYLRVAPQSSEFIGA
Procedure: Kinase Panel: These compounds were tested against 439 kinases. […]. […] The results are presented in Table 2 below, where empty cells indicate no inhibition or compound activity that could not be fit to an IC50 curve.

CK1g1 = CK1g1 (Homo sapiens, UniProt Q9HCP0); experiment: Exemplary Kinase Panel Analysis; format: biochemical; conditions: 10 concentrations, 3-fold serial dilutions starting at 5 μM, duplicate
CYP2C19 = CYP2C19 (Homo sapiens, UniProt P33261); experiment: CYP2C19 inhibition LCMS; format: in vitro ADME
CYP2C19, sequence (P33261 whole entry): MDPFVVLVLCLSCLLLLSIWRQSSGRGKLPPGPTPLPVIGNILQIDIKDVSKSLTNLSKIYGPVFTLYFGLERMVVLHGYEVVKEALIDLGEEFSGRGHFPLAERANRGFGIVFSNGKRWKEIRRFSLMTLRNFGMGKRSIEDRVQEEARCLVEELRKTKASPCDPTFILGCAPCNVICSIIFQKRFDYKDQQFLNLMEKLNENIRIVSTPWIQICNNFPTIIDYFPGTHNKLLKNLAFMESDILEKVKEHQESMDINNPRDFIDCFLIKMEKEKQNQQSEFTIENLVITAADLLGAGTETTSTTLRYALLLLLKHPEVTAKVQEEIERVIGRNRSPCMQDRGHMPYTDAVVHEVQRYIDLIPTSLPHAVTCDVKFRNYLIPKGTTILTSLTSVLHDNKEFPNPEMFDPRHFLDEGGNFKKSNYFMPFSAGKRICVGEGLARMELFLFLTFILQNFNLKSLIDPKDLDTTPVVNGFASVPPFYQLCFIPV

hERG = target: T3, hERG (Homo sapiens, UniProt Q12809); experiment: hERG K+ channel current in HEK293 cells; format: cell-based
T3 construct: expressed in transfected cells; host or cells: HEK293

CYP2D6 = CYP2D6 (Homo sapiens, UniProt P10635); experiment: CYP2D6 inhibition LCMS; format: in vitro ADME
CYP2D6, sequence (P10635 whole entry): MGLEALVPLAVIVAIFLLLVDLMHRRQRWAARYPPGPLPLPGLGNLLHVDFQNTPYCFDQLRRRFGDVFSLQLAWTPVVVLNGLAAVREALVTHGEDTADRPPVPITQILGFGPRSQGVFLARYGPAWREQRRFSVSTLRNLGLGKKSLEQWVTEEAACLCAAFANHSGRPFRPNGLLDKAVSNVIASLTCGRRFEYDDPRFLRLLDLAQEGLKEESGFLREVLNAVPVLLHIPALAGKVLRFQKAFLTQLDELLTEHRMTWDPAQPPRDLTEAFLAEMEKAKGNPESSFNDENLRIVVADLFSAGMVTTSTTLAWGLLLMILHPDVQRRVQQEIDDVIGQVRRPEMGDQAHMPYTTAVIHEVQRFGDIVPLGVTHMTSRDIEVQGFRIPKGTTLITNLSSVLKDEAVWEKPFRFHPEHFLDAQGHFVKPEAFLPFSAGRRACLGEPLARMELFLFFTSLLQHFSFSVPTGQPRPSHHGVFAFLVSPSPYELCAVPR

EGFR (d746-750/T790M) = EGFR (d746-750/T790M) (Homo sapiens, UniProt P00533, DEL746-750/T790M); experiment: Exemplary Kinase Panel Analysis; format: biochemical; conditions: 10 concentrations, 3-fold serial dilutions starting at 5 μM, duplicate
EGFR (d746-750/T790M), sequence (P00533 with tags, fused parts or gaps DEL746-750/T790M limits assumed): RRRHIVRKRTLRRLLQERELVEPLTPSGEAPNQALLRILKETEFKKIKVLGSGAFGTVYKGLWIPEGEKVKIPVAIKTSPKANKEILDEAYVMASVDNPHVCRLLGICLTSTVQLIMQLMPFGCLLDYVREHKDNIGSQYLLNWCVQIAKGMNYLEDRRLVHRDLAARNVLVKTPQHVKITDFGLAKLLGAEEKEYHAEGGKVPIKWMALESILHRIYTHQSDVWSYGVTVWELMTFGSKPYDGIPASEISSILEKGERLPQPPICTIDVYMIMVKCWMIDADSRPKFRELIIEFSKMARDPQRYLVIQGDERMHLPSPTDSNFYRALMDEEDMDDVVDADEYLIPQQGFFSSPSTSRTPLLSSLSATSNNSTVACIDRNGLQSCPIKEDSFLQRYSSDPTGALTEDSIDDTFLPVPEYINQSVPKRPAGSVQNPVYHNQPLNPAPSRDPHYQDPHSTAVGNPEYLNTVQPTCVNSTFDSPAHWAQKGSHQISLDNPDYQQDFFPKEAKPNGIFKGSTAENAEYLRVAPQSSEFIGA

[8] = Mouse Plasma protein binding; format: in vitro ADME
[9] = Original analysis, read-out: JAK1 IC50 (uM) Original
[10] = re-test, read-out: JAK1 IC50 (uM) re-test

JAK1, sequence (P23458 whole entry, species assumed): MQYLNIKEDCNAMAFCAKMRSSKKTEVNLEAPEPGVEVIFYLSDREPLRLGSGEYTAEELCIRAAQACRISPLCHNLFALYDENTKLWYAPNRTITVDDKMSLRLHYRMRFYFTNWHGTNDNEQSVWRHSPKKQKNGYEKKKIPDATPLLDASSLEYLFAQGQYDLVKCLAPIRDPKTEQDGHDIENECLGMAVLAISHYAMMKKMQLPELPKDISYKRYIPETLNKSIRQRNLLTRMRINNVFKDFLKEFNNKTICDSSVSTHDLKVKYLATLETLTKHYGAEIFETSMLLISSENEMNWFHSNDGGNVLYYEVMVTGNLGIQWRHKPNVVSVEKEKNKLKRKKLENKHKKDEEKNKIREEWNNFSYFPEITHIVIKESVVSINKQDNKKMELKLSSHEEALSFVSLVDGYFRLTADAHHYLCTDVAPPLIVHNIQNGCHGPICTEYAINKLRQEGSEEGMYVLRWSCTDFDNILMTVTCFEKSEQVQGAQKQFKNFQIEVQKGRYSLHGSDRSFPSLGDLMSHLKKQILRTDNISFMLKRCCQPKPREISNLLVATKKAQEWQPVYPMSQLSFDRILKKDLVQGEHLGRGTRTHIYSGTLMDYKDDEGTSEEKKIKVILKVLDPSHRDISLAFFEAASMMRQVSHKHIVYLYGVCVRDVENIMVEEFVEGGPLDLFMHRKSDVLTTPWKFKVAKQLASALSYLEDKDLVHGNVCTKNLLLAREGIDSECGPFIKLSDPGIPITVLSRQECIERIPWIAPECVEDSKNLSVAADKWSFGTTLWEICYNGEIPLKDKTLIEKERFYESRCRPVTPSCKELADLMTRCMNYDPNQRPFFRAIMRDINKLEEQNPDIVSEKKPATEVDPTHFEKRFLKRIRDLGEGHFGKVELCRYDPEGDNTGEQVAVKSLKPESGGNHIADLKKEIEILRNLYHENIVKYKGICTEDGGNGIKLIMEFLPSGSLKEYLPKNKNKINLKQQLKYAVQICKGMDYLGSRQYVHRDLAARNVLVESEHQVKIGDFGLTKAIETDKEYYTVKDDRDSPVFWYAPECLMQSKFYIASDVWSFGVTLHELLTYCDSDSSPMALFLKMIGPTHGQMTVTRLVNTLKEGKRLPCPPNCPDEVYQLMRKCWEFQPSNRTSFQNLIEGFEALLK
CK1g2, sequence (P78368 whole entry, species assumed): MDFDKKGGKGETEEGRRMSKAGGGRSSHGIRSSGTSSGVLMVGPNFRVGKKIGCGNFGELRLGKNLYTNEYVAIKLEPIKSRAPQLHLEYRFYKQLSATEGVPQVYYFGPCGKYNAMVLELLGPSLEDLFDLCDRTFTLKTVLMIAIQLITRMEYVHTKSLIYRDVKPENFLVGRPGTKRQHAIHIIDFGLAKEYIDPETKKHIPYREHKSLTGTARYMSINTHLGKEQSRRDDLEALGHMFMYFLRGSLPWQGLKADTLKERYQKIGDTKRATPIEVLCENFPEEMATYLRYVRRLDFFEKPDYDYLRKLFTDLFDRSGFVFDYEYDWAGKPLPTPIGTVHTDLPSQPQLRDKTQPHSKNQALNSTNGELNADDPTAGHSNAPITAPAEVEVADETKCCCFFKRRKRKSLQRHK

With `C=CC(=O)Nc1cc(CC(=O)OC)cc(-c2cnc3ccccc3n2)c1` [Compound 2] the IC50 (CK1g2) was 0.00986 µM, the IC50 (JAK1; [9]) was ≥ 100 µM and the IC50 (JAK1; [10]) was ≥ 100 µM. For the same molecule, the IC50 (JAK3) was 0.00119 µM, the IC50 (CYP3A4 [1]; first session (before /)) was > 100 µM and the IC50 (CYP3A4 [1]; second session (after /)) was > 100 µM. For the same molecule, the fraction unbound [2] was 0.123, the “Minimal Effective Concentration (MEC, uM)” value (L929 Fibroblasts) was 2 µM and the AC50 [3] was 18 µM. The half-life ([4]; first session (before /)) was 3.3 min, the half-life ([4]; second session (after /)) was 6 min and the IC50 (CYP3A4 [5]; first session (before /)) was > 100 µM. The IC50 (CYP3A4 [5]; second session (after /)) was > 100 µM, the half-life ([6]; first session (before /)) was > 1000 min and the half-life ([6]; second session (after /)) was 5.5 min. It also gave an IC50 (EGFR (d752-759)) of 1.03 µM, a half-life ([7]; first session (before /)) of 2 min and a half-life ([7]; second session (after /)) of 2.2 min. The IC50 (EGFR (G719C)) was 0.423 µM, the IC50 (CK1g1) was 0.0802 µM and the IC50 (CYP2C19; first session (before /)) was > 100 µM. For the same molecule, the IC50 (CYP2C19; second session (after /)) was 95 µM, the IC50 (hERG) was > 10 µM and the IC50 (CYP2D6; first session (before /)) was > 100 µM. The IC50 (CYP2D6; second session (after /)) was > 100 µM and the IC50 (EGFR (d746-750/T790M)) was 0.299 µM.

With `C=CC(=O)Nc1cc(NS(C)(=O)=O)cc(-c2cnc3ccccc3n2)c1` [Compound 3] the IC50 (CK1g2) was 0.0333 µM, the IC50 (JAK1; [9]) was ≥ 100 µM and the IC50 (JAK1; [10]) was ≥ 100 µM. For the same molecule, the IC50 (JAK3) was 0.0249 µM, the fraction unbound [8] was 0.147 and the IC50 (CYP3A4 [1]; first session (before /)) was 89.7 µM. The IC50 (CYP3A4 [1]; second session (after /)) was 51 µM, the fraction unbound [2] was 0.054 and the “Minimal Effective Concentration (MEC, uM)” value (L929 Fibroblasts) was 10 µM. It also gave an AC50 [3] of 20 µM, a half-life ([4]; first session (before /)) of 25 min and a half-life ([4]; second session (after /)) of 84 min. For the same molecule, the IC50 (CYP3A4 [5]; first session (before /)) was > 100 µM, the IC50 (CYP3A4 [5]; second session (after /)) was > 100 µM and the half-life ([6]; first session (before /)) was 58 min. It also gave a half-life ([6]; second session (after /)) of 60 min, an IC50 (EGFR (d752-759)) of 3.18 µM and a half-life ([7]; first session (before /)) of 38 min. The half-life ([7]; second session (after /)) was 60 min, the IC50 (CK1g1) was 0.109 µM and the IC50 (CYP2C19; first session (before /)) was > 100 µM. The IC50 (CYP2C19; second session (after /)) was 59 µM, the IC50 (hERG) was > 1 µM and the IC50 (CYP2D6; first session (before /)) was > 100 µM. The IC50 (CYP2D6; second session (after /)) was > 100 µM and the IC50 (EGFR (d746-750/T790M)) was 0.996 µM.

For `C=CC(=O)Nc1cc(CN2CCNC(=O)C2)cc(-c2cnc3ccccc3n2)c1` [Compound 1b, N-[3-[(3-oxopiperazin-1-yl)methyl]-5-quinoxalin-2-yl-phenyl] prop-2-enamide], the IC50 (CK1g2) was 0.322 µM, the IC50 (JAK1; [9]) was ≥ 100 µM and the IC50 (JAK1; [10]) was ≥ 100 µM. The IC50 (JAK3) was 0.000972 µM, the fraction unbound [8] was 0.059 and the IC50 (CYP3A4 [1]; first session (before /)) was > 100 µM. The IC50 (CYP3A4 [1]; second session (after /)) was > 100 µM, the fraction unbound [2] was 0.317 and the “Minimal Effective Concentration (MEC, uM)” value (L929 Fibroblasts) was 20 µM. The AC50 [3] was 45 µM, the half-life ([4]; first session (before /)) was 23 min and the half-life ([4]; second session (after /)) was 50 min. The IC50 (CYP3A4 [5]; first session (before /)) was > 100 µM, the IC50 (CYP3A4 [5]; second session (after /)) was > 100 µM and the half-life ([6]; first session (before /)) was 75 min. For the same molecule, the half-life ([6]; second session (after /)) was > 60 min, the IC50 (EGFR (d752-759)) was 1.56 µM and the half-life ([7]; first session (before /)) was 63 min. It also gave a half-life ([7]; second session (after /)) of 77 min, an IC50 (EGFR (G719C)) of 0.193 µM and an IC50 (CK1g1) of 0.738 µM. For the same molecule, the IC50 (CYP2C19; first session (before /)) was > 100 µM, the IC50 (CYP2C19; second session (after /)) was > 100 µM and the IC50 (hERG) was > 10 µM. The IC50 (CYP2D6; first session (before /)) was > 100 µM, the IC50 (CYP2D6; second session (after /)) was > 100 µM and the IC50 (EGFR (d746-750/T790M)) was 0.56 µM.

With `C=CC(=O)Nc1cc(CN2CCN(C)C(=O)C2)cc(-c2cnc3ccccc3n2)c1` [Compound 1a] the IC50 (CK1g2) was 0.248 µM, the IC50 (JAK1; [9]) was ≥ 100 µM and the IC50 (JAK1; [10]) was ≥ 100 µM. It also gave an IC50 (JAK3) of 0.00157 µM, a fraction unbound [8] of 0.034 and an IC50 (CYP3A4 [1]; first session (before /)) of 81.5 µM. For the same molecule, the IC50 (CYP3A4 [1]; second session (after /)) was > 100 µM, the fraction unbound [2] was 0.223 and the “Minimal Effective Concentration (MEC, uM)” value (L929 Fibroblasts) was 9 µM. For the same molecule, the AC50 [3] was 20 µM, the half-life ([4]; first session (before /)) was 7.3 min and the half-life ([4]; second session (after /)) was 15 min. The IC50 (CYP3A4 [5]; first session (before /)) was > 100 µM, the IC50 (CYP3A4 [5]; second session (after /)) was > 100 µM and the half-life ([6]; first session (before /)) was 64 min. The half-life ([6]; second session (after /)) was 60 min, the IC50 (EGFR (d752-759)) was 0.194 µM and the half-life ([7]; first session (before /)) was 50 min. It also gave a half-life ([7]; second session (after /)) of 36 min, an IC50 (EGFR (G719C)) of 0.0661 µM and an IC50 (CK1g1) of 0.588 µM. The IC50 (CYP2C19; first session (before /)) was > 100 µM, the IC50 (CYP2C19; second session (after /)) was 90 µM and the IC50 (hERG) was > 10 µM. For the same molecule, the IC50 (CYP2D6; first session (before /)) was > 100 µM, the IC50 (CYP2D6; second session (after /)) was > 100 µM and the IC50 (EGFR (d746-750/T790M)) was 0.0879 µM.
